{
  "source": "patent US11022604B2",
  "about": "“Dock derived compound against laminin receptor (37 LR) and uses thereof” (Purdue Research Foundation, priority 2017, dated 2021)",
  "tested_on": "PC-3 cells",
  "experiment": "Label-free quantitative proteomics and Ingenuity Pathway Analysis",
  "format": "cell-based, human",
  "conditions": "PC-3, 10 μM, 72 hours",
  "procedure": "FIG. 7. Volcano Plot of Differentially regulated proteins in response to C3 treatment. PC-3 cells were treated with DMSO or 10 μM C3 for 72 hours and proteins were quantified using label free quantitative mass spectrometry. Proteins were graphed by fold change (Difference) and significance (−Log p) using a false discovery rate of 0.05 and an S0 of 0.1.\nFIG. 8 Ingenuity pathway analysis of proteomic data from C3 treatment of PC-3 cells.\nWound Healing Assay. PC-3 cells were seeded in 6 well plates at 3×10^5 cells per well in complete media until the cells reached confluency. Three horizontal and three vertical scratches were made in the confluent monolayers using a standard 200 μL pipette tip and cellular debris were removed by washing with 1×DPBS three times. 1×RPMI-1640 supplemented with C3 or DMSO was added and cells were incubated for 48 hours as described previously. […] Images were uploaded and analyzed for scratch geometry using the tscratch program (96). First, global thresholding was performed, then individual images were manually inspected for single image threshold adjustment and scratch geometries were quantified. […] The samples were analyzed using the Dionex UltiMate 3000 RSLC Nano System coupled to the Q Exactive™ HF Hybrid Quadrupole-Orbitrap MS (Thermo Scientific). […]",
  "data": [
    {"smiles": "O=C(c1cc(F)cc2c1OCOC2)N1CCN(C2c3ccccc3-c3ccccc32)CC1", "note": "[Compound C3, [4-(9h-fluoren-9-yl)piperazino](6-fluoro-4h-1,3-benzodioxin-8-yl)methanone]", "values": [
      {"measurement": "ICT1 protein level", "value": 1.9, "unit": "FC"}
    ]}
  ]
}
